Reference: PubChem BioAssay (NCI)
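Method: 48-hour compound exposure of cells in 96-well plates, five concentrations, linear interpolation of endpoints. GI50 = concentration required for 50% inhibition of growth. TGI denotes the concentration required for complete inhibition of growth.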 Activity calls are given as the source filed them. Cut-off read from the data, not from the text of the source: active = GI50 below about 0.43 µM; inactive = the rest.

Tests used:
Assay in all cases: inhibition of tumour cell growth, NCI panel, 48 h
786-0 renal = test system: 786-0 renal
A498 renal = test system: A498 renal
ACHN renal = test system: ACHN renal
CAKI-1 renal = test system: CAKI-1 renal
CCRF-CEM leukemia = test system: CCRF-CEM leukemia
COLO 205 colon = test system: COLO 205 colon
EKVX NSCLC = test system: EKVX NSCLC
HCC-2998 colon = test system: HCC-2998 colon
HCT-116 colon = test system: HCT-116 colon
HCT-15 colon = test system: HCT-15 colon
HL-60(TB) leukemia = test system: HL-60(TB) leukemia
HS 578T breast = test system: HS 578T breast
K-562 leukemia = test system: K-562 leukemia
KM12 colon = test system: KM12 colon
M14 melanoma = test system: M14 melanoma
MALME-3M melanoma = test system: MALME-3M melanoma
MCF7 breast = test system: MCF7 breast
MDA-MB-468 breast = test system: MDA-MB-468 breast
NCI-H23 lung = test system: NCI-H23 lung
OVCAR-3 ovarian = test system: OVCAR-3 ovarian
OVCAR-4 ovarian = test system: OVCAR-4 ovarian
OVCAR-5 ovarian = test system: OVCAR-5 ovarian
PC-3 prostate = test system: PC-3 prostate
RPMI-8226 leukemia = test system: RPMI-8226 leukemia
RXF 393 renal = test system: RXF 393 renal
SF-268 CNS = test system: SF-268 CNS
SF-295 CNS = test system: SF-295 CNS
SF-539 CNS = test system: SF-539 CNS
SK-MEL-2 melanoma = test system: SK-MEL-2 melanoma
SK-MEL-28 melanoma = test system: SK-MEL-28 melanoma
SK-MEL-5 melanoma = test system: SK-MEL-5 melanoma
SK-OV-3 ovarian = test system: SK-OV-3 ovarian
SN12C renal = test system: SN12C renal
SNB-19 CNS = test system: SNB-19 CNS
SR leukemia = test system: SR leukemia
TK-10 renal = test system: TK-10 renal
UACC-257 melanoma = test system: UACC-257 melanoma
UACC-62 melanoma = test system: UACC-62 melanoma
UO-31 renal = test system: UO-31 renal

SMILES: Cn1cc(-c2cc(N)n3nc(-c4c[nH]c5ccc(Cl)cc45)cc3n2)c2cccnc21
- GI50 (786-0 renal): 1560 nM
- TGI (786-0 renal): 2910 nM
- GI50 (A498 renal): 20100 nM
- TGI (A498 renal): 37700 nM
- GI50 (ACHN renal): 1720 nM
- TGI (ACHN renal): 3170 nM
- GI50 (CAKI-1 renal): 1640 nM
- TGI (CAKI-1 renal): 3500 nM
- GI50 (CCRF-CEM leukemia): 2510 nM
- TGI (CCRF-CEM leukemia): 9050 nM
- GI50 (COLO 205 colon): 1750 nM
- TGI (COLO 205 colon): 3270 nM
- GI50 (EKVX NSCLC): 1850 nM
- TGI (EKVX NSCLC): 4530 nM
- GI50 (HCC-2998 colon): 1760 nM
- TGI (HCC-2998 colon): 3200 nM
- GI50 (HCT-116 colon): 1810 nM
- TGI (HCT-116 colon): 3290 nM
- GI50 (HCT-15 colon): 1790 nM
- TGI (HCT-15 colon): 3940 nM
- GI50 (HL-60(TB) leukemia): 1800 nM
- TGI (HL-60(TB) leukemia): 5470 nM
- GI50 (HS 578T breast): 1970 nM
- TGI (HS 578T breast): 5080 nM
- GI50 (K-562 leukemia): 2760 nM
- TGI (K-562 leukemia): > 100000 nM
- GI50 (KM12 colon): 2030 nM
- TGI (KM12 colon): 4180 nM
- GI50 (M14 melanoma): 1810 nM
- TGI (M14 melanoma): 3420 nM
- GI50 (MALME-3M melanoma): 1620 nM
- TGI (MALME-3M melanoma): 3040 nM
- GI50 (MCF7 breast): 1770 nM
- TGI (MCF7 breast): 3930 nM
- GI50 (MDA-MB-468 breast): 1560 nM
- TGI (MDA-MB-468 breast): 3250 nM
- GI50 (NCI-H23 lung): 1710 nM
- TGI (NCI-H23 lung): 3390 nM
- GI50 (OVCAR-3 ovarian): 1680 nM
- TGI (OVCAR-3 ovarian): 3270 nM
- GI50 (OVCAR-4 ovarian): 1790 nM
- TGI (OVCAR-4 ovarian): 3760 nM
- GI50 (OVCAR-5 ovarian): 1730 nM
- TGI (OVCAR-5 ovarian): 3620 nM
- GI50 (PC-3 prostate): 2540 nM
- TGI (PC-3 prostate): 8680 nM
- GI50 (RPMI-8226 leukemia): 2600 nM
- TGI (RPMI-8226 leukemia): > 100000 nM
- GI50 (RXF 393 renal): 1490 nM
- TGI (RXF 393 renal): 2900 nM
- GI50 (SF-268 CNS): 2060 nM
- TGI (SF-268 CNS): 4820 nM
- GI50 (SF-295 CNS): 1650 nM
- TGI (SF-295 CNS): 3130 nM
- GI50 (SF-539 CNS): 1620 nM
- TGI (SF-539 CNS): 3010 nM
- GI50 (SK-MEL-2 melanoma): 12300 nM
- TGI (SK-MEL-2 melanoma): 24700 nM
- GI50 (SK-MEL-28 melanoma): 1530 nM
- TGI (SK-MEL-28 melanoma): 2900 nM
- GI50 (SK-MEL-5 melanoma): 1650 nM
- TGI (SK-MEL-5 melanoma): 3060 nM
- GI50 (SK-OV-3 ovarian): 2030 nM
- TGI (SK-OV-3 ovarian): 4760 nM
- GI50 (SN12C renal): 1520 nM
- TGI (SN12C renal): 3130 nM
- GI50 (SNB-19 CNS): 2600 nM
- TGI (SNB-19 CNS): 6740 nM
- GI50 (SR leukemia): 2300 nM
- TGI (SR leukemia): > 100000 nM
- GI50 (TK-10 renal): 2020 nM
- TGI (TK-10 renal): 4640 nM
- GI50 (UACC-257 melanoma): 1900 nM
- TGI (UACC-257 melanoma): 3870 nM
- GI50 (UACC-62 melanoma): 1630 nM
- TGI (UACC-62 melanoma): 3070 nM
- GI50 (UO-31 renal): 1550 nM
- TGI (UO-31 renal): 3050 nM

SMILES: Cc1cc(N2CCSCC2)nc(NC2CCCC(Nc3ccnc4cc(Cl)ccc34)C2)n1 (stereo unspecified)
- GI50 (MDA-MB-468 breast): 1580 nM
- TGI (MDA-MB-468 breast): 3350 nM

SMILES: CCC(CNc1cc(OC)cc2cccnc12)NC1CCCCC1 (stereo unspecified)
- GI50 (MDA-MB-468 breast): 7660 nM
- TGI (MDA-MB-468 breast): 35500 nM

SMILES: O=C(Nc1ccc(-n2ccc3c(NC(=O)c4ccccc4)ncnc32)cc1)Nc1cccc(Cl)c1Cl
- GI50 (MDA-MB-468 breast): 1180 nM
- TGI (MDA-MB-468 breast): 3420 nM

SMILES: COc1ccc(/C=N\Nc2ccc([N+](=O)[O-])cn2)cc1OC
- GI50 (MDA-MB-468 breast): > 100000 nM
- TGI (MDA-MB-468 breast): > 100000 nM

SMILES: COc1ccccc1CNCCCN1C(=O)c2ccc3c4c(ccc(c24)C1=O)C(=O)N(CCCCNCCCN)C3=O
- GI50 (MDA-MB-468 breast): 267 nM
- TGI (MDA-MB-468 breast): 835 nM

SMILES: COc1cc(CNc2ccccc2C(=O)N2CCN(C(=O)c3cc(-c4cc(OC)c(OC)c(OC)c4)n4nc(-c5ccccc5)cc4n3)CC2)cc(OC)c1OC
- GI50 (MDA-MB-468 breast): 2100 nM
- TGI (MDA-MB-468 breast): 8450 nM

SMILES: COc1ccc2[nH]cc(-c3nc(N)nnc3-c3cn(C)c4ccc(Br)cc34)c2c1
- GI50 (MDA-MB-468 breast): 698 nM
- TGI (MDA-MB-468 breast): 16000 nM

SMILES: O=C(/C=C/c1ccccc1)n1c(-c2ccc(Cl)cc2)nc2ccccc21
- GI50 (MDA-MB-468 breast): 1520 nM
- TGI (MDA-MB-468 breast): 4320 nM

SMILES: C=C1CCC2C(C)(COC(=O)CC)C(OC(=O)CC)CCC2(C)C1C/C=C1/C(=O)OCC1OC(=O)CC (stereo unspecified)
- GI50 (MDA-MB-468 breast): 1740 nM
- TGI (MDA-MB-468 breast): 3400 nM

SMILES: Cc1ccc(N(CC(=O)Nc2ccc(S(=O)(=O)N3CCC(N4CCCC4)CC3)cc2)S(=O)(=O)c2ccc(Cl)cc2)cc1
- GI50 (MDA-MB-468 breast): 1650 nM
- TGI (MDA-MB-468 breast): 3480 nM

SMILES: CCN(CC)CCCC(C)N=C(C1=C(C(=NC(C)CCCN(CC)CC)c2cccc(OC)c2)C(=O)NC1=O)c1cccc(OC)c1 (stereo unspecified)
- GI50 (MDA-MB-468 breast): 869 nM
- TGI (MDA-MB-468 breast): 2070 nM

SMILES: CO[C@H](C(=O)[C@@H](O)[C@@H](C)O)[C@@H]1Cc2cc3cc(OC4CC(OC5CC(O)C(O)C(C)O5)C(O)C(C)O4)c(C)c(O)c3c(O)c2C(=O)[C@H]1OC1CC(OC2CC(OC3CC(C)(O)C(O)C(C)O3)C(O)C(C)O2)C(O)C(C)O1 (stereo partly specified)
- outcome (MDA-MB-468 breast): inactive

SMILES: CN1C(=O)N[C@H]2[C@@H]3NC(=O)c4ccc(Br)n4[C@@H]3C[C@]21O
- GI50 (MDA-MB-468 breast): 25.3 nM
- TGI (MDA-MB-468 breast): 173 nM

SMILES: OCC(O)c1nc2ccc3[nH]ncc3c2c2c1CCCC2 (stereo unspecified)
- GI50 (MDA-MB-468 breast): 1040 nM
- TGI (MDA-MB-468 breast): 2110 nM

SMILES: CCN(CC)CCCNC(=O)c1c2c(n3ccccc13)C(=O)c1ncccc1C2=O
- GI50 (MDA-MB-468 breast): 283 nM
- TGI (MDA-MB-468 breast): 1080 nM

SMILES: CC(C)(C)[Si](C)(C)OC1[C@@H](O[Si](C)(C)C(C)(C)C)[C@@H](CNC(=O)NC(=O)CCl)O[C@H]1n1cnc2c(NC(=O)Nc3ccccc3)ncnc21 (stereo partly specified)
- GI50 (MDA-MB-468 breast): 839 nM
- TGI (MDA-MB-468 breast): 1910 nM

SMILES: Cn1c2ccc(Br)cc2c2c3c(c4c5ccccc5[nH]c4c21)C(=O)N(O)C3=O
- GI50 (MDA-MB-468 breast): 214 nM
- TGI (MDA-MB-468 breast): 638 nM
